Measurements as given in PMC8308625, “Preclinical Studies in Anti-Trypanosomatidae Drug Development” (Pharmaceuticals, 2021).
Where two headings read alike, the source gives them in different places. Each block holds one compound with its values, some of them ahead of it.

How the values were obtained:
T. brucei = experiment: Growth inhibition of T. brucei bloodstream form trypomastigotes (resazurin); type: cell-based, Trypanosoma brucei brucei; settings: read-out: EC50 ± SD T. brucei
Method: Compounds were dissolved in dimethylsulfoxide (DMSO).

T. cruzi = settings: read-out: EC50 ± SD T. cruzi, cited from earlier work
[1] = mice, 796 150 mg/kg oral, Cyclophosphamide intraperitoneal positive control
[2] = test system: L. infantum reference strain (MHOM/BR/2002/LPC-RPV); experiment: Growth inhibition of L. infantum reference strain promastigotes (resazurin)
L. braziliensis = settings: read-out: EC50 ± SD L. brazils, cited from earlier work
[3] = test system: J774.1 murine macrophages; experiment: Nonspecific cytotoxicity in murine macrophages (MTT)
L. amazonensis = experiment: Growth inhibition of L. amazonensis promastigotes (resazurin)
[4] = test system: L. infantum veterinary isolate (MCAN_UY_2015_gPL8); experiment: Growth inhibition of L. infantum veterinary isolate promastigotes (resazurin)
[5] = Liver fraction stability (cytosolic and microsomal fraction of rat hepatocytes, TLC); type: in vitro ADME; settings: rat hepatocyte cytosolic and microsomal fractions, 37 °C
Method: For the determination of the stability in the different fractions, (cytosolic and microsomal of rat hepatocytes) the different proteins present in them were used. The fractions were prepared according to the previously reported protocol. […] The final concentration of the molecules in the aqueous medium was 400 µM and prepared from a stock in DMSO of 40 mM. The solutions were homogenized and incubated at 37 °C at 10 min, 30 min, 1 h, 2 h, 3 h and 4 h. (by TLC). For this, it was incubated at 37 °C in a volume of 1 mL: 2.5 µL of 30 mM Magnesium Chloride (MgCl); 2.5 µL of 40 mM Nicotinamide Adenosine Dinucleotide Phosphate (NADP+); 5 µL of 350 mM Glucose 6- Phosphate (Glu6P); 5 µL of Glucose 6- phosphate dehydrogenase (Glu6PD) 50 U/mL, 5 µL of the stock of 40 mM compounds and the volume of the Phosphate Buffer (pH = 7) must be such that cytosolic (CF) and microsomal (MF) fraction FC and FM present a final protein concentration of 0.1 mg/mL. After that, the stability of compounds 796 and 1019 in the cytosolic (FCF) and microsomal (FMF) fraction of rat hepatocytes was evaluated at different times (1–4 h). Thin-layer chromatography of ethyl acetate extracts was conducted to evaluate the presence of decomposition products. The mobile phase used for these TLCs was n-hexane: ethyl acetate (7: 3).

T. b. brucei = settings: ref Veale and Hoppe, 2018; read-out: EC50 T. b. brucei; cited from earlier work
[6] = Nonspecific cytotoxicity in murine macrophages (MTT); settings: mouse, J774.1 murine macrophages
[7] = Table 4, curcuminoids, ref [14]
[8] = Table 3, thiazolidene hydrazines, ref [13],[16],[19],[23],[25]
[9] = read-out: EC50 ± SD Lin–Ref, Table 3, thiazolidene hydrazines, L. infantum reference strain
[10] = Table 3, thiazolidene hydrazines
[11] = read-out: EC50 ± SD Lin–Ref, Table 4, curcuminoids, L. infantum reference strain

EC50 (T. brucei; Table 4, curcuminoids): 0.7 ± 0.1 µM
Compound: O=C(C=Cc1ccsc1)C=Cc1ccsc1 [Compound 1387]
EC50 (T. cruzi; [7]): 16 ± 2 µM

EC50 (T. brucei; Trypanosoma brucei, Table 3, thiazolidene hydrazines): 5 ± 1 µM
Compound: Clc1ccc(-c2csc(N/N=C/C=C/c3ccco3)n2)cc1 [Compound 901]
EC50 (T. cruzi; [8]): 1.2 ± 0.3 µM

Compound: O=P1(N(CCCl)CCCl)NCCCO1 (centres unmarked) [Cyclophosphamide, reference compound]
Media Mn/Mouse ± SD [1]: 36 ± 2
Number EPMn (total polychromatic micronucleated erythrocytes in the 5 assays) ([1]; 5000 EPC observed): 180

Compound: C=CCNC(=S)NN=CC=Cc1ccc(C)o1 [Compound 263]
EC50 (T. cruzi; [8]): 5 ± 1 µM
EC50 [2, 9]: < 0.3 µM

Compound: O=C(NN=CC=Cc1ccco1)c1cnn(-c2ccccc2)c1 [Compound 1366]
EC50 (T. cruzi; [8]): 12 ± 2 µM

Compound: C=CCn1c(-c2ccc(Cl)cc2)csc1=NN=Cc1ccsc1 [Compound 877]
EC50 (T. brucei; [10]): 10 ± 1 µM
EC50 (T. cruzi; [8]): 15 ± 3 µM

EC50 ([2]; Leishmania infantum, read-out: EC50 ± SD Lin–Ref): 6 ± 1 µM
EC50 ([4]; Leishmania infantum, read-out: EC50 ± SD Lin–Vet): 10 ± 2 µM
Compound: CC1CS(=O)(=O)CCN1/N=C/c1ccc([N+](=O)[O-])o1 (centres unmarked) [Nifurtimox, reference compound]
EC50 (T. cruzi; [8]): 7 ± 2 µM
EC50 (L. braziliensis; [8]): 6 ± 2 µM
EC50 ([3]; Mus musculus, J774.1, read-out: EC50 ± SD MΦ): 200 ± 9 µM
Selectivity Index MΦ/L. amaz (L. amazonensis; EC50 mammalian cell line/EC50 L. amazonensis): 33
Selectivity Index MΦ/Lin–Ref ([2]; EC50 mammalian cell line/EC50 L. infantum reference strain): 33
Selectivity Index MΦ/Lin–Vet ([4]; EC50 mammalian cell line/EC50 L. infantum veterinary isolate): 20

Compound: Cc1ccc(S(=O)(=O)NN=CC=Cc2ccco2)cc1 [Compound 1369]
EC50 (T. cruzi; [8]): 15 ± 5 µM
EC50 [2, 9]: 8 ± 2 µM

EC50 (T. brucei; Table 4, curcuminoids): 15 ± 2 µM
EC50 [2, 11]: < 0.3 µM
Compound: O=C1C(=CC=Cc2cccs2)CCC1=CC=Cc1cccs1 [Compound 1018]
EC50 (T. cruzi; [7]): 0.04 ± 0.01 µM
EC50 (L. braziliensis; [7]): 11 ± 3 µM

Compound: C=CCNC(=S)NN=CC(C)=Cc1ccco1 [Compound 909]
EC50 (T. brucei; [10]): 19 ± 1 µM
EC50 (T. cruzi; [8]): 6 ± 1 µM
EC50 [2, 9]: 10 µM

EC50 (T. brucei; Table 4, curcuminoids): 1.7 ± 0.5 µM
metabolic stability: time compound detected / degraded [5]: < 1 h
EC50 (L. amazonensis; read-out: EC50 ± SD L. amaz, Table 4, curcuminoids): 5 ± 1 µM
EC50 [2, 11]: < 0.3 µM
EC50 ([4]; read-out: EC50 ± SD Lin–Vet, Table 4, curcuminoids, L. infantum veterinary isolate): 12 ± 3 µM
Compound: O=C1C(=Cc2ccccc2)CCCC1=Cc1ccccc1 [Compound 799]
EC50 (T. cruzi; [7]): 5 ± 1 µM
EC50 (L. braziliensis; [7]): 4.2 ± 0.9 µM
EC50 ([3]; read-out: EC50 ± SD MΦ, murine macrophages, footnote: J774.1 macrophages or differentiated THP-1 monocytes): 115 ± 8 µM

Compound: CS(=O)(=O)c1ccc(C(=O)N(C[C@H]2CCCO2)c2nc3ccccc3s2)cc1[N+](=O)[O-] [MMV688761, N-(1,3-Benzothiazol-2-yl)-4-methylsulfonyl-3-nitro-N-[[(2R)-oxolan-2-yl]methyl]benzamide]
EC50 (T. b. brucei): 11 µM
EC50 at 48 h [6]: > 50 µM
Selectivity Index MΦ/Reference ([2]; EC50 J774.1 macrophages versus L. infantum reference strain): >10
EC50 ([2]; Leishmania infantum, read-out: EC50 L. infantum Reference): 4.9 ± 0.1 µM
Selectivity Index MΦ/Veterinary ([4]; EC50 J774.1 macrophages versus L. infantum veterinary isolate): >13
EC50 ([4]; Leishmania infantum, read-out: EC50 L. infantum Veterinary): 3.9 ± 0.3 µM

EC50 (T. brucei; Table 4, curcuminoids): 15 ± 1 µM
Compound: O=C1C(=CC=Cc2ccccc2)CCCC1=CC=Cc1ccccc1 [Compound 800]
EC50 (T. cruzi; [7]): 14 µM
